Common to all, as to assay: inhibition of tumour cell growth, NCI panel, 48 h
In assay [1] the test system is EKVX NSCLC.
The test system of assay [2] is HCC-2998 colon.
Assay [3] deals with LOX IMVI melanoma.
Assay [4] has as its system NCI-H23 lung.
In assay [5] the test system is NCI-H460 lung.
In assay [6] the test system is RXF 393 renal.
For assay [7], the system named is SK-MEL-2 melanoma.
In assay [8] the test system is SW-620 colon.
Assay [9] relates to T-47D breast.
In assay [10] the test system is U251 CNS.

SMILES strings stand for the structures. Where “and” joins values, the source holds several entries; their conditions need not be identical. Equal values may be shown once.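 Five compound concentrations were applied to cells in 96-well plates for 48 hours; endpoints were derived by simple linear interpolation of the resulting dose-response curve. Abbreviation: GI50, concentration required for 50% inhibition of growth. TGI marks complete inhibition of growth.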 *1 amine or outer side, *2 acyl side, *3 side chain or, on linkers, in order; H or OH if unused. Where a SMILES comes first, the peptide text is derived from it. Bridges are numbered along the chain shown (N, C = ends). [ ]: non-standard residue; d: D form. The star is where a group is joined. Phe(3-Me) = Cc1cccc(C[C@H](N)C(=O)O)c1; NH(4-Cl-2-F-phenyl) = Fc1cc(Cl)ccc1N*; Pro(4R-Me) = C[C@H]1CN[C@H](C(=O)O)C1; Hyp = O=C(O)[C@@H]1C[C@@H](O)CN1; aThr = C[C@H](O)[C@H](N)C(=O)O; Pip = O=C(O)[C@@H]1CCCCN1; CO = O=C([*:1])[*:2] A value given as a limit tells only on which side of the number the result lay.

Consider `CCOC(=O)C(Cc1c[nH]c2cc([N+](=O)[O-])ccc12)(NC(C)=O)C(=O)OCC`, for which the GI50 is 59 µM in assay [1]; above 1000 µM in assay [2]; above 766 µM in [3]; 138 µM in assay [4]; 58600 nM in [6]; 36 µM and 168 µM in [7]. Besides, the GI50 in [8] is above 1000 µM; in assay [9] it was 40700 nM and 105000 nM; in assay [10], 104 µM. The TGI is above 614 µM in assay [1]; above 1000 µM in assay [2]; above 1000 µM in assay [3]; above 1000 µM in [4]; above 1000 µM in [5]; 133 µM in [6]. Further, the TGI is 97.9 µM and 401 µM in assay [7]; above 1000 µM in assay [8]; above 1000 µM in [9]; above 693 µM in [10].

Turning to `O=C(c1cc(-c2cc3c(cc2C(=O)N2Cc4ccccc4C[C@H]2CN2CCOCC2)OCO3)n2c1CCCC2)N(c1ccccc1)c1ccc(O)cc1`, the GI50 in [1] is 5.31 µM; in assay [2], 4.93 µM; in assay [3] it was 7.09 µM; in assay [4], 34.8 µM; in [5], 7.09 µM; in assay [6] it was 2770 nM. Moreover, the GI50 is 10.2 µM in assay [7], 17.3 µM in [8], 4950 nM in assay [9] and 6.99 µM in [10]. In addition, the TGI was above 100 µM in assay [1]; 61.3 µM in [2]; above 100 µM in assay [3]; above 100 µM in [4]; above 100 µM in [5]; 17.5 µM in assay [6]. In addition, the TGI in [7] is 54.4 µM; in [8], above 100 µM; in assay [9], above 100 µM; in assay [10], above 100 µM.

In the case of `O=C1C(Cl)=C(N2CCOCC2)C(=O)c2ccccc21`, the GI50 in assay [1] was 3.75 µM; in assay [2], 12 µM; in [3], 3.01 µM; in assay [4], 3.32 µM; in [5], 20.2 µM; in assay [6], 1850 nM. The GI50 in [7] is 3.82 µM; in assay [8], 1.76 µM; in assay [9], 2310 nM; in [10], 5.07 µM. For the same compound, the TGI in assay [1] turned out to be 14.3 µM; in [2], 25.6 µM; in [3], 13.6 µM; in [4], 20.9 µM; in assay [5], 42.8 µM; in assay [6], 3.26 µM. Moreover, the TGI in assay [7] is 11.6 µM; in assay [8], 3.51 µM; in assay [9], 5.13 µM; in assay [10], 17.8 µM.

Regarding `O=[N+]([O-])c1cc(Br)cc2c1[nH]c1ccc(Br)cc12`, the GI50 in assay [1] was 3.19 µM; in assay [2], 9.86 µM; in assay [3] it was 4.9 µM; in assay [4] it was 8.56 µM; in [5] it was 4.66 µM; in assay [6], 5040 nM. For the same compound, the GI50 in assay [7] was 6.22 µM; in [8], 7.97 µM; in assay [9] it was 6760 nM; in assay [10], 14.8 µM. Besides, the TGI was above 100 µM in assay [1]; above 100 µM in assay [2]; above 100 µM in assay [3]; above 100 µM in [4]; 66.6 µM in assay [5]; 20.9 µM in [6]. The TGI is 41.5 µM in assay [7], above 100 µM in assay [8], 77.9 µM in assay [9] and 93.2 µM in assay [10].

On to `Cc1cccc(C[C@H](NC(=O)Nc2ccc(Cl)cc2F)C(=O)N[C@@H]2C(=O)N3C[C@H](O)C[C@H]3C(=O)N3CCCC[C@H]3C(=O)N[C@@H](C)C(=O)N3C[C@H](C)C[C@H]3C(=O)O[C@H]2C)c1` ({NH(4-Cl-2-F-phenyl)-CO}-[Phe(3-Me)][aThr][Hyp][Pip]A[Pro(4R-Me)]; ester 2-C), for which the GI50 in [1] is 0.86 µM; in [2], 0.468 µM; in [3], 0.67 µM; in assay [4], 0.551 µM; in assay [5], 0.398 µM; in [6] it was 1310 nM. The GI50 in assay [7] was 0.635 µM; in assay [8], 0.595 µM; in assay [9], 415 nM; in [10] it was 0.44 µM. Moreover, the TGI in assay [1] is 8.04 µM; in assay [2] it was 1.77 µM; in assay [3], 2.16 µM; in assay [4], 3.72 µM; in assay [5] it was 2.46 µM; in assay [6] it was 2.96 µM. Further, the TGI in assay [7] is 2.37 µM; in [8] it was 10.9 µM; in assay [9], 4.84 µM; in assay [10], 7.77 µM.

As for `Cc1c(Cl)cccc1NC(=O)c1sc2nc3c(cc2c1N)CCCCCC3`, the GI50 is 0.234 µM in assay [1]; 1.39 µM in [2]; 0.3 µM in assay [3]; 0.273 µM in assay [4]; 0.187 µM in assay [5]; 133 nM in [6]. Also, the GI50 in assay [7] was 0.196 µM; in assay [8], 0.175 µM; in assay [9], 223 nM; in [10], 0.223 µM. Also, the TGI in assay [1] was above 50 µM; in [2], above 50 µM; in assay [3], above 50 µM; in [4], above 50 µM; in assay [5] it was above 50 µM; in [6], 3.5 µM. The TGI in assay [7] was 24.2 µM; in assay [8], above 50 µM; in [9], above 50 µM; in [10], 14.3 µM.

Turning to `CCN(CC)CCCC(C)Nc1cnc(C(=O)Nc2cc(F)cc3cccnc23)cn1` (configuration not stated), the GI50 was 10.2 µM and 1.22 µM in [1]; 5.01 µM and 1.53 µM in [2]; 3.32 µM and 0.882 µM in assay [3]; 4.64 µM and 2.06 µM in assay [5]; 4260 nM and 1320 nM in assay [6]; 3.78 µM and 2.55 µM in assay [7]. Also, the GI50 is 4.03 µM and 0.814 µM in [8]; 759 nM and 505 nM in assay [9]; 5.72 µM and 1.56 µM in assay [10]. In addition, the TGI in assay [1] was 22.1 µM and 2.51 µM; in assay [2], 18.4 µM and 2.97 µM; in assay [3], 11.3 µM and 2.28 µM; in assay [5] it was 16.6 µM and 4.22 µM; in assay [6] it was 16.9 µM and 2.69 µM; in assay [7], 10.8 µM and 6.39 µM. Besides, the TGI was 15 µM and 2.62 µM in assay [8]; 20.2 µM and 5.18 µM in assay [9]; 18.4 µM and 3.01 µM in [10].

The values above are taken from PubChem BioAssay (NCI).
